Measurements published in PubChem BioAssay AID2060603 (Molecular Pharmacology Branch, DTP, NCI, 2025).

Tested on: 422866-222-R5-J1-PDC spheroid viability
Test: Anticancer human tumor 422866-222-R5-J1-PDC patient-derived pancreatic adenocarcinoma cell line growth inhibition [CLK]
Details: spheroids with HUVEC and MSC; for IC50: curve of first compound; for viability, T/C: stronger effect = lower value
Text: A high-throughput screen of multi-cell type tumor spheroids was designed to identify active combinations of […] and targeted small molecules. Complex spheroids include a stromal component modeled by human endothelial cells (HUVEC) and fibroblasts modeled by human mesenchymal stem cells (MSCs). The concentration ranges selected for each drug and investigational agent were based upon clinically achievable concentrations if the clinical Cmax of the agent was known.
Compounds. The drugs and investigational agents: cirtuvivint (SM08502; NSC835563), CC-671 (NSC850746), vemurafenib (NSC761431), tapotoclax (NSC804041), sotorasib (NSC818433), adagrasib (NSC831453), MRTX-1133 (NSC836407), BAY2416964 (NSC825713), copanlisib (NSC816437), inavolisib (NSC800729), abemaciclib (NSC768073), osimertinib (NSC779217), entinostat (NSC756642), eltanexor (KPT-8602, NSC794443), venetoclax (NSC766270), ceralasertib (NSC777638), bortezomib (NSC756655), olaparib (NSC753686), talazoparib (NSC767125), alisertib (NSC759677), peposertib (NSC802822), gemcitabine (NSC613327), 5-fluorouracil (NSC19893), SN-38 (NSC673596), oxaliplatin (NSC266046), paclitaxel (NSC125973), and doxorubicin (NSC123127), were obtained from the National Cancer Institute (NCI) Developmental Therapeutics Program Chemical Repository. The FDA-approved anticancer drug set is available from the Developmental Therapeutics Program at https://dtp.cancer.gov/organization/dscb/obtaining/available plates.htm. […] The stock solutions were prepared in dimethyl sulfoxide (DMSO, Sigma-Aldrich, St. Louis, MO, cat. D2650), except for the platinum complexes which were prepared in saline (Quality Biological, Gaithersburg, MD, cat. 114-055-101), at 800-fold the tested concentration and stored at -70 degrees C prior to their use. All drugs and investigational agents were tested over a range starting from a high concentration at or near the clinical Cmax and decreasing in half-log increments. If the clinical Cmax for an agent had not been determined, the highest concentration tested was 10 microM.
Cell Culture. All cells were maintained in an incubator at 37 degrees C and 5% CO2 with 95% humidity. The PDC lines were cultured according to standard operating procedures established by the NCI PDMR. Briefly, all PDCs were thawed and cultured in Matrigel-coated flasks prepared with a working solution of 1X Ham's F-12 nutrient mix, without supplementation (Invitrogen, Waltham, MA, cat. 11765054), 100 U/mL penicillin-streptomycin (Invitrogen, cat. 15140122), and 2.5% Matrigel (Corning Inc., Corning, NY, cat. 354248) for the first three passages. The 947758-054-R-J2-PDC line was cultured in 6B/Colon 1A media, which includes advanced DMEM/F-12 (Thermo Fisher Scientific, cat. 12634028), 10 mM HEPES (Thermo Fisher Scientific, cat. 15630080), 1X GlutaMAX supplement (Thermo Fisher Scientific, cat. 35050061), 0.1 mg/mL primocin (InvivoGen, cat. ant-pm-2), 10% defined fetal bovine serum, heat inactivated (HyClone Laboratories Inc., cat. SH30070.03HI), 1.25 mM N-Acetyl-L-cysteine (Sigma-Aldrich, cat. A9165), 10 mM nicotinamide (Sigma-Aldrich, cat. N0636), 1X B-27 supplement (Thermo Fisher Scientific, cat. 17504044), 1X N-2 supplement (Thermo Fisher Scientific, cat. 17502048), and 10 microM Y-27632 dihydrochloride (Tocris Bioscience, cat. 1254). The 876862-298-R-J1-PDC was cultured in 6E media, which includes all 6B/Colon 1A media components plus 50% L-WRN conditioned media (ATCC, cat. CRL-3276), 50 ng/mL recombinant human EGF recombinant protein (hEGF; Thermo Fisher Scientific, cat. PHG0311), 10 ng/mL recombinant human fibroblast growth factor 10 (hGFG-10; PeproTech, cat. 100-26), 1 ng/mL recombinant human fibroblast growth factor 2 (hFGF-2; PeproTech, cat. 100-18B), and 1 µM prostaglandin E2 (PGE2; Tocris, cat. 2296). The 227483-062-R1-J1-PDC line was cultured in Panc media, containing all 6E components except hFGF-2, with the addition of 500 nM SB-431542 (Selleckchem, cat. S1067) and 10 nM gastrin (Tocris, cat. 3006). […]
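Further: spheroids exposed to agents for seven days before readout.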

C#Cc1c(F)ccc2cc(O)cc(-c3ncc4c(N5CC6CCC(C5)N6)nc(OCC56CCCN5CC(F)C6)nc4c3F)c12 (configuration not stated) + CN1CCN(c2cc(C(=O)Nc3cc4cc(-c5cnn(C)c5)ccc4cn3)ccn2)CC1 gave an IC50 (second compound 0.0316 µM) of 1540 nM, an IC50 (second compound 0.1 µM) of 1780 nM and an IC50 (second compound 0.316 µM) of 1200 nM. The IC50 (second compound 1 µM) was under 31.6 nM, the IC50 (second compound 3.16 µM) was under 31.6 nM and the IC50 (second compound 10 µM) was under 31.6 nM. The viability, T/C (second compound 0.0316 µM, first compound 0.0316 µM) was 99.1%, the viability, T/C (second compound 0.0316 µM, first compound 0.1 µM) was 100% and the viability, T/C (second compound 0.0316 µM, first compound 0.316 µM) was 70.7%. For the same molecule, the viability, T/C (second compound 0.0316 µM, first compound 1 µM) was 60.9%, the viability, T/C (second compound 0.0316 µM, first compound 3.16 µM) was 37.4% and the viability, T/C (second compound 0.0316 µM, first compound 10 µM) was 33.9%. The viability, T/C (second compound 0.1 µM, first compound 0.0316 µM) was 100%, the viability, T/C (second compound 0.1 µM, first compound 0.1 µM) was 113% and the viability, T/C (second compound 0.1 µM, first compound 0.316 µM) was 74.7%. For the same molecule, the viability, T/C (second compound 0.1 µM, first compound 1 µM) was 60.5%, the viability, T/C (second compound 0.1 µM, first compound 3.16 µM) was 45.3% and the viability, T/C (second compound 0.1 µM, first compound 10 µM) was 33.4%. For the same molecule, the viability, T/C (second compound 0.316 µM, first compound 0.0316 µM) was 105%, the viability, T/C (second compound 0.316 µM, first compound 0.1 µM) was 83.4% and the viability, T/C (second compound 0.316 µM, first compound 0.316 µM) was 68.4%. The viability, T/C (second compound 0.316 µM, first compound 1 µM) was 50.5%, the viability, T/C (second compound 0.316 µM, first compound 3.16 µM) was 41.4% and the viability, T/C (second compound 0.316 µM, first compound 10 µM) was 26.8%. For the same molecule, the viability, T/C (second compound 1 µM, first compound 0.0316 µM) was 35.7%, the viability, T/C (second compound 1 µM, first compound 0.1 µM) was 35.1% and the viability, T/C (second compound 1 µM, first compound 0.316 µM) was 38%. It also gave a viability, T/C (second compound 1 µM, first compound 1 µM) of 27.2%, a viability, T/C (second compound 1 µM, first compound 3.16 µM) of 24.3% and a viability, T/C (second compound 1 µM, first compound 10 µM) of 19%. It also gave a viability, T/C (second compound 3.16 µM, first compound 0.0316 µM) of 11.2%, a viability, T/C (second compound 3.16 µM, first compound 0.1 µM) of 11.9% and a viability, T/C (second compound 3.16 µM, first compound 0.316 µM) of 7.84%. It also gave a viability, T/C (second compound 3.16 µM, first compound 1 µM) of 7.25%, a viability, T/C (second compound 3.16 µM, first compound 3.16 µM) of 5.39% and a viability, T/C (second compound 3.16 µM, first compound 10 µM) of 7.56%. It also gave a viability, T/C (second compound 10 µM, first compound 0.0316 µM) of 5.16%, a viability, T/C (second compound 10 µM, first compound 0.1 µM) of 2.81% and a viability, T/C (second compound 10 µM, first compound 0.316 µM) of 1.05%. It also gave a viability, T/C (second compound 10 µM, first compound 1 µM) of 1.26%, a viability, T/C (second compound 10 µM, first compound 3.16 µM) of 1.28% and a viability, T/C (second compound 10 µM, first compound 10 µM) of 4.84%.
